Test results taken from US6365178B1, “Method of making pressure sensitive adhesive matrix patches for transdermal drug delivery using hydrophilic salts of drugs and hydrophobic pressure sensitive adhesive dispersions” (priority 1996, dated 2002).

Columns and labels:
[1] = disclosed in U.S. Pat. No. 5,589,498 (Example 2); cited from earlier work
[2] = In vitro skin flux, modified Franz non-jacketed diffusion cells; format: in vitro ADME, human; conditions: Example 6, DURO-TAK 2852 patch, 10% ketorolac on free acid basis, 8% enhancer (propylene glycol/isopropyl myristate)
Method: In vitro skin flux studies were conducted using human cadaver epidermal membrane in modified Franz non-jacketed diffusion cells. […] This method involves the exposure of the fullthickness skin to water at 60° C. for 60 seconds. After this period, the epidermal membrane was gently peeled from the dermis and stored in aluminum foil at −5 ° C. Prior to skin permeation experiments, the silanized release liner was removed from the adhesive matrix system, and the adhesive was affixed to the stratum corneum side of the thawed epidermal membrane, which was then cut to an appropriate size and placed between the two halves of the diffusion cell with the stratum corneum facing the donor compartment.
The receiver compartment was filled with water or an aqueous buffer appropriate to maintain sink conditions for the drug. All receiver media included 0.02% (w/w) sodium azide to inhibit bacterial growth. The diffusion cell was placed in a temperature controlled circulating water bath calibrated to maintain the surface temperature of the skin at 32° C. The receiver compartment was constantly stirred by a magnetic stir bar in the receiver compartment agitated by a magnetic stirring module placed under the water bath. At predetermined sampling intervals, the entire contents of the receiver compartment were collected for drug quantitation, and the receiver compartment was filled with fresh receiver solution, taking care to eliminate any air bubbles at the skin/solution interface.
The cumulative amount of drug permeated per unit area at any time t (Qt, μg/cm^2) was determined according to the following equation: [formula]
where Ct (μg/cm^3) is the concentration of the receiver compartment at sample time t (hours), V is the volume of the receiver compartment of the diffusion cell (6.3 cm^3), and A is the diffusional area of the cell (0.64 cm^2).

[3] = Visual/microscopic observation of matrix films for drug crystals after preparation and on storage (physical stability); format: physicochemical
Method: As used herein, “physical stability” of a drug in a matrix patch includes the lack of recrystallization of the drug in the dried adhesive layer of the patch.
Pressure sensitive adhesive matrix systems described herein were prepared as follows. First, the solids content of a water-based or solvent-based adhesive in liquid form was determined by placing a known weight of liquid in a weighed aluminum dish and evaporating the solvents overnight in a 70° C. convection oven. The content of solid adhesive in the liquid was calculated by dividing the adhesive solid weight after drying by the initial total liquid weight. In some cases, the polyisobutylene (PIB) adhesives were prepared from polyisobutylene solids. The solid PIB was first dissolved in heptane to achieve a final solid content of about 30% by weight, and then the exact solid content was determined as described above. Next, a weighed quantity of adhesive liquid was added to a glass bottle, and the solid adhesive weight was calculated from the known solid fraction of the given adhesive liquid. The drug substance (hydrophilic salt or free drug form) was weighed and added to the adhesive solution in a quantity necessary to achieve a selected dry matrix film composition. The liquid containing the adhesive polymer drug substance was then mixed overnight. […] After mixing, approximately 8 ml of the solution was dispensed on a silanized polyester release liner and film cast using a casting knife with a gap size appropriate to achieve a final dried thickness of approximately 0.05-0.1 mm. The cast was dried in a 70° C. convection oven for 15-30 minutes to yield a dried matrix onto which an 0.08 mm thick polyethylene backing film was laminated. These matrix systems were then used to conduct in vitro skin flux experiments as described below. […]
The systems manufactured with the salt and the water-based adhesive dispersions were stored at room temperature and examined using optical microscopy at 100× magnification for the presence of drug crystals.

[4] = Dissolution of drug substance in liquid adhesive or solvent during matrix preparation; format: physicochemical
Method: Pressure sensitive adhesive matrix systems described herein were prepared as follows. First, the solids content of a water-based or solvent-based adhesive in liquid form was determined by placing a known weight of liquid in a weighed aluminum dish and evaporating the solvents overnight in a 70° C. convection oven. The content of solid adhesive in the liquid was calculated by dividing the adhesive solid weight after drying by the initial total liquid weight. In some cases, the polyisobutylene (PIB) adhesives were prepared from polyisobutylene solids. […] Next, a weighed quantity of adhesive liquid was added to a glass bottle, and the solid adhesive weight was calculated from the known solid fraction of the given adhesive liquid. The drug substance (hydrophilic salt or free drug form) was weighed and added to the adhesive solution in a quantity necessary to achieve a selected dry matrix film composition. The liquid containing the adhesive polymer drug substance was then mixed overnight. […] The cast was dried in a 70° C. convection oven for 15-30 minutes to yield a dried matrix onto which an 0.08 mm thick polyethylene backing film was laminated. These matrix systems were then used to conduct in vitro skin flux experiments as described below.

[5] = Example 5, TSR, equivalent to 1% (w/w) tromethamine salt

SMILES: O=C(c1ccccc1)c1ccc2n1CCC2C(=O)O (centres unmarked) [Ketorolac free acid, ketorolac]
- 24 hour cumulative release [1]: 461.7±83.8
- Flux [1]: 21.6±3.6 μg/cm^2/h
- Average cumulative amount of ketorolac released after 24 hours [2]: 583.3±94.6 μg/cm^2
- In vitro skin flux of ketorolac ([2]; Mean±SD, n=2/10 skins/diffusion cells): 25.4±4.2 μg/cm^2/h
- Drug crystals in dried matrix [3, 5]: visually free of any crystals
- Drug crystals in adhesive matrix/laminate ([3]; Example 6, DURO-TAK 2852 with propylene glycol/isopropyl myristate, 10% ketorolac on free acid basis, visual and microscopic): visibly homogeneous and free from crystals
- Dissolution in organic solvent system [4, 5]: completely dissolved
- Dissolution in enhancer-acrylic adhesive solution ([4]; Example 6, DURO-TAK 2852 with propylene glycol/isopropyl myristate, 10% ketorolac on free acid basis): formed a homogeneous solution
